According to patent publication US7683024B2, “Polyaminoacids functionalized by alpha tocopherol and uses thereof, particular for therapeutic applications” (Flamel Technologies, priority 2002, dated 2010):

Experiment: Comparative analysis of solutions at 15 mg/ml in water at pH 7.4 (phosphate buffer)
Type: physicochemical

Appearance of solution: milky solution
Compound: Cc1c(C)c2c(c(C)c1OC(=O)CCC(=O)O)CC[C@@](C)(CCC[C@H](C)CCC[C@H](C)CCCC(C)C)O2 [α-tocopherol succinate]
